Data published in patent US4207308A, “Process for purifying iodinated bile acid conjugates” (priority 1977, dated 1980).
Values belong to the compound of their own block, whether it stands above or below them.

What was measured:
[1] = system: antibodies from rabbits (anti BSA-cholylglycine conjugate), Ab 927; assay: Antibody titer curves using cholylglycyl-125I-histamine (or 3H-cholylglycine) tracer; format: binding, rabbit
Description: Young adult male New Zealand white rabbits were immunized at multiple sites on the back at bi-weekly intervals using 1.0 ml of BSA-cholylglycine conjugate (50 μg) emulsified with an equal volume of Freund's adjuvant. Serum was harvested every 2 weeks beginning one month after the initial immunization. […] 1 mg bovine gamma globulin was included in each tube. […] The supernate (bound) was decanted into another tube and both the charcoal (free) and supernate (bound) tubes were counted in a γ-spectrometer (Elscint). Results were expressed as the bound/free (B/F) ratio. A standard curve was constructed and unknowns were quantitated from a standard curve run with each assay. Antibodies from six different rabbits were produced and tested.

Ab 927 [2] = assay: Radioimmunoassay cross-reactivity / displacement of cholylglycyl-125I-histamine tracer (Specificity of Tracer and Antibody)
Ab 927 [3] = system: Ab 927

- Non-specific binding ([1]; CPM in supernate without antibody, unchanged as long as 6 months after iodination): 2-4%
- binding of tracer ([1]; corresponds to B/F 14.2, 1:100 dilution): 93%
Compound: Cholylglycyl-^125 I-histamine [cholylglycyl-125I-histamine]
- initial B/F (bound/free ratio) ([1]; 1:100 dilution, approximately 3000 CPM cholylglycyl-125I-histamine, four antibodies): 10.5 to 14.2
- specificity (in words) (Ab 927 [2]): maintain a specificity toward the conjugated bile salts, particularly cholate and chenodeoxycholate conjugates

Compound: C[C@H](CCC(=O)O)[C@H]1CC[C@H]2[C@@H]3CC[C@@H]4C[C@H](O)CC[C@]4(C)[C@H]3CC[C@]12C [Lithocholic acid]
- activity (Ab 927 [3]): 2%

Compound: C[C@H](CCC(=O)NCC(=O)NCCc1c[nH]cn1)[C@H]1CC[C@H]2[C@@H]3[C@H](O)C[C@@H]4C[C@H](O)CC[C@]4(C)[C@H]3C[C@H](O)[C@]12C [cholylglycylhistamine]
- Amount required for displacement relative to other bile salts (fold less) (Ab 927 [2]; FIG. 4, less than other bile salts): approximately 10 fold
- affinity (in words) (Ab 927 [2]; explanation for sensitivity not rising with titer): greater affinity
